# In patent publication US11612604B2, “Methods of treating cancer with PLK4 inhibitors” (LUDWIG INSTITUTE FOR CANCER RESEARCH LTD, priority 2017, dated 2023):
# Molecular target: T1, PLK4 (Homo sapiens, UniProt O00444)
# T1 sequence (O00444 1-970): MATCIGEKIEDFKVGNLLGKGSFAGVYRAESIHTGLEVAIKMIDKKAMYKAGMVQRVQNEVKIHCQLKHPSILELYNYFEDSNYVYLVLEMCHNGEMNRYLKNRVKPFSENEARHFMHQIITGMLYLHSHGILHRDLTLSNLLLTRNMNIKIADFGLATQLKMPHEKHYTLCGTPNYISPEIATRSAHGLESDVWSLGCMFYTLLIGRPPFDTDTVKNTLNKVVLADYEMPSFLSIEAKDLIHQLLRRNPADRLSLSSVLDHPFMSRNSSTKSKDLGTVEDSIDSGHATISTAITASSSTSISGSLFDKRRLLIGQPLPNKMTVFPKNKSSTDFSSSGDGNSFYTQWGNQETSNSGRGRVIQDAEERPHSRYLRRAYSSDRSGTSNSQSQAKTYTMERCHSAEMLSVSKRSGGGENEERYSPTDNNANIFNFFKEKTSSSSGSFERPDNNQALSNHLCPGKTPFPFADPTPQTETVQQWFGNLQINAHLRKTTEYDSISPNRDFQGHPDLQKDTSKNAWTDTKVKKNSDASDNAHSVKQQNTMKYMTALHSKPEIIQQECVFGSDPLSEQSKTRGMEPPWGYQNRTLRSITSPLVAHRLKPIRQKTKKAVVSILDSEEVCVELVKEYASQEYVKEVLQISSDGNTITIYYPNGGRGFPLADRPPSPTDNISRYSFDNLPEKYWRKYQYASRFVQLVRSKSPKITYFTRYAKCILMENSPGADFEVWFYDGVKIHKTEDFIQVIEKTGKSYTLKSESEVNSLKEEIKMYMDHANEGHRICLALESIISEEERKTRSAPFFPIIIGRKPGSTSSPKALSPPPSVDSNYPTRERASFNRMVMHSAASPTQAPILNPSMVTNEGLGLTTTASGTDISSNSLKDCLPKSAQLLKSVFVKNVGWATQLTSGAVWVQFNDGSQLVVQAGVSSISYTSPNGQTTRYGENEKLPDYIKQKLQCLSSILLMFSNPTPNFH
# Assay: Activity (IC50) of the Table 1 compounds as PLK4 inhibitors
# Assay type: biochemical
# Conditions: Table 1, IC50 class
row,SMILES,IC50
1,Cc1cc(Nc2nc(Sc3ccc([N+](=O)[O-])cc3)nc3c2CCC32CCNCC2)n[nH]1,100 to 1000 nM
2,COc1c(Nc2cc(C)[nH]n2)nc(Sc2ccc(NC(=O)C3CC3)cc2)nc1N1CCOCC1,< 100 nM
3,COc1c(Nc2cc(C)[nH]n2)nc(Sc2ccc(S(=O)(=O)C(C)(C)c3cccc([N+](=O)[O-])c3F)cc2F)nc1N1CCC(CCN)CC1,< 100 nM
4,COc1c(Nc2cc(C)[nH]n2)nc(Sc2ccc(S(=O)(=O)Cc3cccc([N+](=O)[O-])c3F)cc2)nc1N1CCN(CCN(C)C)CC1,< 100 nM
5,CC(=O)Nc1ccc(Sc2nc(Nc3cc(C)[nH]n3)c(C)c(N3CCCCC3)n2)cc1,< 100 nM
6,COc1c(Nc2cc(C)[nH]n2)nc(Sc2ccc(S(=O)(=O)Cc3cccc(C(C)=O)c3)cc2)nc1N1CCN(CCN(C)C)CC1,< 100 nM
7,COc1c(Nc2cc(C)[nH]n2)nc(Sc2ccc(NC(C)=O)cc2)nc1N1CCN(CC(=O)C2CCCCC2)CC1,< 100 nM
8,COc1c(Nc2cc(C)[nH]n2)nc(Sc2ccc(S(=O)(=O)C(C)(C)c3cccc([N+](=O)[O-])c3F)cc2F)nc1N1CCC(OC)C1 (stereo not shown),< 100 nM
9,CNC1CCN(c2nc(Sc3ccc(NC(C)=O)cc3)nc(Nc3cc(C)[nH]n3)c2C)CC1,< 100 nM
10,COc1c(Nc2cc(C)[nH]n2)nc(Sc2cccc(NC(C)=O)c2)nc1N1CCOCC1,< 100 nM
11,COc1c(Nc2cc(C)[nH]n2)nc(Sc2ccc(NC(=O)C3CC3)cc2)nc1NC(C)C,< 100 nM
12,COc1c(Nc2cc(C)[nH]n2)nc(Sc2ccc(C#Cc3cccc([N+](=O)[O-])c3F)cc2F)nc1N1CCOCC1,< 100 nM
13,COC(=O)c1cccc(CS(=O)(=O)c2ccc(Sc3nc(Nc4cc(C)[nH]n4)c(OC)c(N4CCN(CCN(C)C)CC4)n3)cc2)c1,< 100 nM
14,COc1c(Nc2cc(C)[nH]n2)nc(Sc2ccc(NC(C)=O)cc2)nc1N1CCN(CCN2C3CCCC2CCC3)CC1,< 100 nM
15,CSc1nc(Nc2cc(C)[nH]n2)c(C)c(N2CCC(O)CC2)n1,< 100 nM
16,COc1c(Nc2cc(C)[nH]n2)nc(Sc2cccc(NC(C)=O)c2)nc1N1CCN(CCN(C)C)CC1,< 100 nM
17,COc1c(Nc2cc(C)[nH]n2)nc(Sc2ccc(S(=O)(=O)Cc3cccc(Br)c3F)cc2F)nc1N1CCCCC1,< 100 nM
18,COc1c(Nc2cc(C)[nH]n2)nc(Sc2ccc(S(=O)(=O)Cc3ccccc3[N+](=O)[O-])cc2)nc1N1CCN(CCN(C)C)CC1,< 100 nM
19,CCOc1c(Nc2cc(C)[nH]n2)nc(Sc2ccc(NC(=O)C3CC3)cc2)nc1N(C)C,< 100 nM
20,COc1c(Nc2cc(C)[nH]n2)nc(Sc2ccc(S(=O)(=O)Cc3ccccc3)cc2)nc1N1CCN(CCN2C3CCCC2CCC3)CC1,< 100 nM
21,CNC(=O)CC1CCN(c2nc(Sc3ccc(S(=O)(=O)C(C)(C)c4cccc([N+](=O)[O-])c4)cc3F)nc(Nc3cc(C)[nH]n3)c2OC)CC1,< 100 nM
22,CCOc1c(Nc2cc(C)[nH]n2)nc(Sc2ccc(NC(=O)C3CC3)cc2)nc1N1CCC(O)CC1,< 100 nM
23,CC(=O)Nc1ccc(Sc2nc(Nc3cc(C)[nH]n3)c3c(n2)C2(CC3)CCN(CCN(C)C)CC2)cc1,< 100 nM

row,SMILES,IC50
1,COc1c(Nc2cc(C)[nH]n2)nc(Sc2ccc(S(=O)(=O)C(C)(C)c3c(F)c(F)c(F)c(F)c3F)cc2F)nc1N1CCC(N(C)C)CC1,< 100 nM
2,COc1c(Nc2cc(C)[nH]n2)nc(Sc2ccc(S(=O)(=O)Cc3ccccc3)cc2)nc1N1CCN(CCN(C)c2ccccc2)CC1,< 100 nM
3,CC(=O)Nc1ccc(Sc2nc(Nc3cc(C)[nH]n3)c(Cl)c(N3CCC(O)CC3)n2)cc1,< 100 nM
4,Cc1cc(Nc2nc(Sc3ccc(N)cc3)nc3c2CCC32CCN(CCN(C)C)CC2)n[nH]1,< 100 nM
5,COc1c(Nc2cc(C)[nH]n2)nc(Sc2ccc(S(=O)(=O)Cc3cccc([N+](=O)[O-])c3F)cc2)nc1N1CCC(O)CC1,< 100 nM
6,CSc1nc(Nc2cc(C)[nH]n2)c(Cl)c(N2CCCCC2)n1,< 100 nM
7,COc1c(Nc2cc(C)[nH]n2)nc(Sc2ccc(S(=O)(=O)Cc3c(F)c(F)cc(F)c3F)cc2F)nc1N1CCOCC1,< 100 nM
8,COc1c(Nc2cc(C)[nH]n2)nc(Sc2ccc(NC(C)=O)cc2)nc1N1CCN(C(=N)NO)CC1,< 100 nM
9,COc1c(Nc2cc(C)[nH]n2)nc(Sc2ccc(NC(C)=O)cc2)nc1NC1CCNCC1,< 100 nM
10,COc1c(Nc2cc(C)[nH]n2)nc(Sc2ccc(S(=O)(=O)C(C)(C)c3cccc([N+](=O)[O-])c3F)cc2F)nc1N1CCC(CC(=O)O)CC1,< 100 nM
11,COc1c(Nc2cc(C)[nH]n2)nc(Sc2ccc(NC(C)=O)cc2)nc1N1CCN(CCCN(C)C)CC1,< 100 nM
12,COc1c(Nc2cc(C)[nH]n2)nc(Sc2ccc(S(=O)(=O)C(C)(C)c3cccc(Cl)c3F)cc2F)nc1N1CCN(CCN(C)C)CC1,< 100 nM
13,COc1c(Nc2cc(C)[nH]n2)nc(Sc2ccc(S(=O)(=O)Cc3cccs3)cc2)nc1N1CCN(CCN(C)C)CC1,< 100 nM
14,CC(=O)Nc1ccc(Sc2nc(Nc3cc(C)[nH]n3)c(C)c(N3CCN(C(C)C)CC3)n2)cc1,< 100 nM
15,COCCNc1nc(Sc2ccc(NC(=O)C3CC3)cc2)nc(Nc2cc(C)[nH]n2)c1OC,< 100 nM
16,Cc1cc(Nc2nc(Sc3ccc(NC(=O)C4CC4)cc3)nc(N3CCN(CCN(C)C)CC3)c2C)n[nH]1,< 100 nM
17,COc1c(Nc2cc(C)[nH]n2)nc(Sc2ccc(S(=O)(=O)Cc3ccccc3F)cc2)nc1N1CCOCC1,< 100 nM
18,COc1c(Nc2cc(C)[nH]n2)nc(Sc2ccc(S(=O)(=O)C(C)(C)c3cccc([N+](=O)[O-])c3)cc2F)nc1N1CCC(CCNC(C)C(F)(F)F)CC1 (stereo not shown),< 100 nM
19,Cc1cc(Nc2nc(Sc3ccc(NC(=O)C4CCCC4)cc3)nc(N(C)C(C)C)c2C)n[nH]1,< 100 nM
20,COc1c(Nc2cc(C)[nH]n2)nc(Sc2ccc(S(=O)(=O)C(C)(C)c3cccs3)cc2)nc1N1CCN(CCN(C)C)CC1,< 100 nM
21,Cc1cc(Nc2nc(Sc3ccccc3)nc(N3CCCCC3)c2C)n[nH]1,< 100 nM
22,COCCN1CCN(c2nc(Sc3ccc(NC(C)=O)cc3)nc(Nc3cc(C)[nH]n3)c2OC)CC1,< 100 nM
23,CC(=O)Nc1ccc(Sc2nc(Nc3cc(C)[nH]n3)c(C)c(N3CC=C(F)CC3)n2)cc1,< 100 nM

row,SMILES,IC50
1,COc1c(Nc2cc(C)[nH]n2)nc(Sc2ccc(NC(C)=O)cc2)nc1N1CCN(CCN)CC1,< 100 nM
2,COc1c(Nc2cc(C)[nH]n2)nc(Sc2ccc(S(=O)(=O)C(C)(C)c3c(F)c(F)cc(F)c3F)cc2F)nc1N1CCC(CN)CC1,< 100 nM
3,COc1ccccc1CS(=O)(=O)c1ccc(Sc2nc(Nc3cc(C)[nH]n3)c(OC)c(N3CCN(CCN(C)C)CC3)n2)cc1,< 100 nM
4,COc1c(Nc2cc(C)[nH]n2)nc(Sc2ccc(S(=O)(=O)Cc3cccc([N+](=O)[O-])c3)cc2)nc1N1CCO[C@H](C)C1,< 100 nM
5,COc1ccc(CS(=O)(=O)c2ccc(Sc3nc(Nc4cc(C)[nH]n4)c(OC)c(N4CCN(CCN(C)C)CC4)n3)cc2)cc1,< 100 nM
6,COc1c(Nc2cc(C)[nH]n2)nc(Sc2ccc(S(=O)(=O)Cc3cccc([N+](=O)[O-])c3)cc2F)nc1N1CCOCC1,< 100 nM
7,CNCCC1CCN(c2nc(Sc3ccc(S(=O)(=O)C(C)(C)c4cccc([N+](=O)[O-])c4F)cc3F)nc(Nc3cc(C)[nH]n3)c2OC)CC1,< 100 nM
8,COc1c(Nc2cc(C)[nH]n2)nc(Sc2ccc(S(=O)(=O)C(C)(C)c3c(F)c(F)cc(F)c3F)cc2F)nc1N1CCC(N(C)C)CC1,< 100 nM
9,CCN(CC)c1nc(Sc2ccc(S(=O)(=O)CC)cc2)nc(Nc2cc(C)[nH]n2)c1OC,< 100 nM
10,COc1c(Nc2cc(C)[nH]n2)nc(Sc2ccc(S(=O)(=O)C(C)(C)c3cccc([N+](=O)[O-])c3F)cc2F)nc1N1CCC(N)C1 (stereo not shown),< 100 nM
11,CCS(=O)(=O)c1ccc(Sc2nc(Nc3cc(C)[nH]n3)c(OC)c(N3CCN(CCN(C)C)CC3)n2)cc1,< 100 nM
12,COc1c(Nc2cc(C)[nH]n2)nc(Sc2ccc(S(C)(=O)=O)cc2Cl)nc1N1CCC(CCN(C)C)CC1,< 100 nM
13,COc1c(Nc2cc[nH]n2)nc(Sc2ccc(S(=O)(=O)Cc3ccccc3)cc2)nc1N1CCN(CCN(C)C)CC1,< 100 nM
14,COc1c(Nc2cc(C)[nH]n2)nc(Sc2ccc(S(=O)(=O)C(C)(C)C)cc2)nc1N1CCN(CCN(C)C)CC1,< 100 nM
15,COc1c(Nc2cc(C)[nH]n2)nc(Sc2ccc(NC(=O)C3CC3)cc2)nc1N1CCCCC1,< 100 nM
16,COc1c(Nc2cc(C)[nH]n2)nc(Sc2ccc(NC(C)=O)cc2)nc1N1CC2CCC(C1)N2CCN1CCN(C)CC1,< 100 nM
17,COc1c(Nc2cc(C)[nH]n2)nc(Sc2ccc(S(=O)(=O)C(C)(C)c3ccccn3)cc2)nc1N1CCN(CCN(C)C)CC1,< 100 nM
18,COCCNc1nc(Sc2ccc(NC(=O)C3CC3)cc2)nc(Nc2cc(C)[nH]n2)c1C,< 100 nM
19,COc1c(Nc2cc(C)[nH]n2)nc(Sc2ccc(S(=O)(=O)C(C)(C)c3cccc([N+](=O)[O-])c3F)cc2F)nc1N1CCCC(N(C)C)C1 (stereo not shown),< 100 nM
20,COCCN(C)c1nc(Sc2ccc(NC(C)=O)cc2)nc(Nc2cc(C)[nH]n2)c1C,< 100 nM
21,COc1c(Nc2cc(C)[nH]n2)nc(Sc2ccc(S(=O)(=O)Cc3cccc(Cl)c3)cc2)nc1N1CCN(CCN(C)C)CC1,< 100 nM
